Reference: patent US11548900B2, “Oxazino-quinazoline and oxazino-quinoline type compound, preparation method and uses thereof” (BEIJING SCITECH-MQ PHARMACEUTICALS LIMITED, priority 2018, dated 2023)

Assays:
EGFR kinase = EGFR kinase (Homo sapiens (Human), UniProt P00533); assay: Inhibition of EGFR kinase activity (ULight-labeled JAK-1 (Tyr1023) peptide substrate); format: biochemical; conditions: EGFR kinase 0.35 nM, ATP 150 μM, 2 hours
Description: (§1) The assay for the inhibition of EGFR and HER2 kinase activity by small molecular compounds was carried out using the method as follows:
(§2) 1) Dilution of the compounds
(§3) In a 96-well plate a, the compounds were diluted with DMSO using a 3-fold gradient dilution to form 11 concentrations, the 12th concentration is pure DMSO (as a positive control); and in a new 96-well plate b the above solutions were diluted 25 times with ultrapure water (DMSO concentration is 4%).
(§4) 2) Transferring the compounds to 384-well plate
(§5) The compound solutions diluted with ultrapure water in the 96-well plate b above was transferred to the corresponding wells of a 384-well plate in duplicate.
(§6) 3) Addition of 4×kinase solution: 2.5 μl of the above 4× kinase solution was taken using multichannel pipette and added to the corresponding reaction wells of the 384-well plate, mixed well and pre-reacted at room temperature for 5 minutes.
(§7) 4) Addition of 2×substrate/ATP mixed solution: 5 μl of the above 2×substrate/ATP mixed solution was taken using multichannel pipette and added to the corresponding reaction wells of the 384-well plate.
(§8) 5) Negative control: negative control wells were set in the 384-well plate, and 2.5 μl 4×substrate, 2.5 μl 4×enzyme solution, 2.5 μl 1×Kinase Assay Buffer and 2.5 μl ultrapure water containing 4% DMSO were added to each well.
(§9) 6) Mixed by centrifugation and kept at room temperature for 2 hours in the dark.
(§10) 7) Termination of the enzymatic reaction:
(§11) 5 μl of the above 4× stop solution was pipetted to the corresponding wells of the 384-well plate, centrifuged and mixed, and reacted at room temperature for 5 minutes.
(§12) 5 μl of the above 4× detection solution was pipetted into the corresponding wells of the 384-well plate, centrifuged and mixed, and reacted at room temperature for 1 hour.
(§13) 9) The 384-well plate was placed into a microplate reader and the signal was detected using the corresponding program.
(§14) 10) IC50 analysis: Well reading value=10000*EU665 value/EU615 value Inhibition rate=(reading value of positive control well−reading value of experimental well)/(reading value of positive control well−reading value of negative control well)*100% Corresponding IC50s can be calculated by entering the drug concentrations and the corresponding inhibition rates into GraphPad Prism 5.
Conditions of experiment for screening EGFR kinase inhibitory molecules:
The final concentration of EGFR kinase in the reaction system is 0.35 nM, and the final concentration of ATP is 150 μM, the final concentration of substrate ULight™-labeled JAK-1 (Tyr1023) Peptide is 100 nM, and the enzymatic reaction time is 2 hours.
(§15) The maximum final concentration of the compound in the reaction system is 2.5 μM, 11 concentrations were made with a 3-fold gradient dilution, and the minimal final concentration is 0.042 nM. The final concentration of DMSO is 1%.

HER2 kinase = HER2 kinase (Homo sapiens (Human), UniProt P04626); assay: Inhibition of HER2 kinase activity (ULight-labeled PolyGT substrate); format: biochemical; conditions: HER2 kinase 10 nM, ATP 10 μM, 2 hours
Sequence of HER2 kinase (P04626 23-1255): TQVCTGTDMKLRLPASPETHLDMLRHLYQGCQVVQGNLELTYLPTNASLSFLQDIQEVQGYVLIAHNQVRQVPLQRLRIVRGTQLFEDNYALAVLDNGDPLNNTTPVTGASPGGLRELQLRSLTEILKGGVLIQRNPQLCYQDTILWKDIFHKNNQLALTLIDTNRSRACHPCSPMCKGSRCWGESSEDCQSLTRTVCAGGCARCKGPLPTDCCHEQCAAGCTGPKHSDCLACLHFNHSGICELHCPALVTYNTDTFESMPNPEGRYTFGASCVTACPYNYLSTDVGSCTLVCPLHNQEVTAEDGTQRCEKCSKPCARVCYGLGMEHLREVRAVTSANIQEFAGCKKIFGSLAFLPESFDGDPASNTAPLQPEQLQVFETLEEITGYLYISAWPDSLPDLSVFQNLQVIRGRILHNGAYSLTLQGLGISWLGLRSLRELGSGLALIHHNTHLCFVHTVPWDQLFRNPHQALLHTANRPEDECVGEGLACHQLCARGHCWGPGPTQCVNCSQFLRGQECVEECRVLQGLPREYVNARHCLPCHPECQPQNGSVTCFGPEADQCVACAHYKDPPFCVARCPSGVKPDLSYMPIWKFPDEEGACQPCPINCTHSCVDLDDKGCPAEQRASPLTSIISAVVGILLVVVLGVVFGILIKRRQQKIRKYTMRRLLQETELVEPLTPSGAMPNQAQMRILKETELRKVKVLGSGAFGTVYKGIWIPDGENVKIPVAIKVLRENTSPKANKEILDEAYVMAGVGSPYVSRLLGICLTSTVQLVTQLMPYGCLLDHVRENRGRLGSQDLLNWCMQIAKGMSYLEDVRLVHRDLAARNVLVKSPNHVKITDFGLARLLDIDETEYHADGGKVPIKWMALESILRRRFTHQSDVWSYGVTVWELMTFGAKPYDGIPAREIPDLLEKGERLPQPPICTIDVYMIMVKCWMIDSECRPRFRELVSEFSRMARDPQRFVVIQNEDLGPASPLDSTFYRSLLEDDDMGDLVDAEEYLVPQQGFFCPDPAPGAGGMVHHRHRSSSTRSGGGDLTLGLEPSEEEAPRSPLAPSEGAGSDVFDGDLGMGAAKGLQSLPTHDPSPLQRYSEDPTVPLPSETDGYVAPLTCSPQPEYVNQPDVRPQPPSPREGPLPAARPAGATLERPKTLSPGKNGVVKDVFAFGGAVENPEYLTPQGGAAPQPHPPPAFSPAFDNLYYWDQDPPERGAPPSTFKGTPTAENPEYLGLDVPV
Description: as §1, §2, §3, §4, §5, §6, §7, §8, §9, §10, §11, §12, §13, §14
Conditions of experiment for screening HER2 kinase inhibitory molecules:
The final concentration of HER2 kinase in the reaction system is 10 nM, the final concentration of ATP is 10 μM, the final concentration of substrate ULight™-labeled PolyGT is 100 nM, and the enzymatic reaction time is 2 hours.
as §15

BT474 cells = assay: Inhibition of cell proliferation, BT474 (CCK-8, 72 h); format: cell-based; conditions: Homo sapiens, BT-474, 72 h incubation
Description: The assay for the inhibition of cell proliferation by small molecular compounds was carried out using the method as follows:
1. 600 μL pancreatin was added to a T75 cell culture flask, which was digested in a 37° C. incubator for about 1 min before 5 mL of DMEM complete culture solution was added, blew evenly, transferred to a 15 mL centrifuge tube, and centrifuged at 1000 rpm for 4 min;
2. The supernatant was removed and 5 mL DMEM complete culture solution was added, blew evenly, and 10 μL cell suspension was taken and mixed with 10 μL 0.4% Trypan Blue, and counted using a cell counter;
3. BT474 and HCC827 cell lines were seeded in 96-well plates at a cell density of 10,000 and 3000 cells/well/80 μL, respectively, and cultured overnight. Only sterile water was added to the 36 wells on the periphery of the 96-well plate without adding cells, and only the 60 wells in the center of the 96-well plate were used for cell assays and controls;
4. Dilution of compounds: the compounds were diluted with a 3-fold dilution to make 10 concentrations in total with an initial concentration of 10 mM;
5. 20 μL of different compounds with different concentrations were added to each well, and 20 μL of complete culture solution was added to the remaining wells. The final concentration of DMSO in each well is 0.25%;
6. After 72 h of incubation, 10 μL CCK-8 reagent was added to each well, and incubated at 37° C. for 1-2 h; and the OD value was read at 450 nm;
7. Cell survival rate (%)=[(As−Ab)/(Ac−Ab)]*100%
As: Assay well (medium containing cell, CCK-8, compound)
Ac: Control well (medium containing cell, CCK-8)
Ab: Blank well (CCK-8, medium without cell and compound)
8. The value was imported into Graphpad Prism5 software for the calculation of IC50s (compound concentration at which 50% maximum survival rate is observed).

Sequence of EGFR kinase (P00533 25-1210): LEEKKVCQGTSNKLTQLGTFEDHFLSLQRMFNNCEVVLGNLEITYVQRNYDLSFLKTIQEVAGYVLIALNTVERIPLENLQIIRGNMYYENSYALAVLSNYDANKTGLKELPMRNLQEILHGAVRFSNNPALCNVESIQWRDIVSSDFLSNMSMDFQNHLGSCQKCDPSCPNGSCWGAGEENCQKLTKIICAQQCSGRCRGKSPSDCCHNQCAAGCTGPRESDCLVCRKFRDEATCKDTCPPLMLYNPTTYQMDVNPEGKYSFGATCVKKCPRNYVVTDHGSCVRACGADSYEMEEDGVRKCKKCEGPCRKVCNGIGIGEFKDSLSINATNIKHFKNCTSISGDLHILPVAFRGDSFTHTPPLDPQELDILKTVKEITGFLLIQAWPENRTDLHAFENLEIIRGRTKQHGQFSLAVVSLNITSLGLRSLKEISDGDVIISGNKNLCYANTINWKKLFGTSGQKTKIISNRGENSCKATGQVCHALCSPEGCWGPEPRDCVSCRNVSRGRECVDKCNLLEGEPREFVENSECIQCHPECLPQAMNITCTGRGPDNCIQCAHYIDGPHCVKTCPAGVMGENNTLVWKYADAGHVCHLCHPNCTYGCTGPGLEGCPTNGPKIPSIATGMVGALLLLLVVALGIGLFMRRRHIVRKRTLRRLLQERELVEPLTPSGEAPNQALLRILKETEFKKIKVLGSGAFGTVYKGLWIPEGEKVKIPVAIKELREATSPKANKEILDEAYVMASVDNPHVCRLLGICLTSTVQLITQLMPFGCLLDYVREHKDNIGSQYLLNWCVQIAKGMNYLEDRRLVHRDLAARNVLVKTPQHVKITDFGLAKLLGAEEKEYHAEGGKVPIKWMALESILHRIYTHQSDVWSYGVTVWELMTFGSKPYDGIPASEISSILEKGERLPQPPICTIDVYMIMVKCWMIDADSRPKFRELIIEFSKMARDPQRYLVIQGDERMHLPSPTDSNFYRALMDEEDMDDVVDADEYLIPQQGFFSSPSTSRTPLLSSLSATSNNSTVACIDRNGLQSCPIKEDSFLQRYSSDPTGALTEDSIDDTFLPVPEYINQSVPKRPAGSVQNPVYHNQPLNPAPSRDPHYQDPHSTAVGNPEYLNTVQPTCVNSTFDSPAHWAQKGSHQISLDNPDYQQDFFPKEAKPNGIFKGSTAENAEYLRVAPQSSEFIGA

| SMILES | IC50 (EGFR kinase) [nM] | IC50 (HER2 kinase) [nM] | IC50 (BT474 cells) [nM] |
| --- | --- | --- | --- |
| C=CC(=O)N1CCOc2c1ccc1ncnc(Oc3ccc(OCc4cccc(F)c4)c(Cl)c3)c21 [Example 35, 1-(10-(3-chloro-4-((3-fluorobenzyl)oxy)phenoxy)-2,3-dihydro-4H-[1,4]oxazino[2,3-f]quinazolin-4-yl)prop-2-en-1-one] | ≤ 50 | ≤ 50 |  |
| C=CC(=O)N1CCOc2c1ccc1ncnc(Oc3ccc(Oc4ccc(F)cc4)cc3)c21 [Example 37, 1-(10-(4-(4-fluorophenoxy)phenoxy)-2,3-dihydro-4H-[1,4]oxazino[2,3-f]quinazolin-4-yl)prop-2-en-1-one] | ≤ 50 | ≤ 50 |  |
| C=CC(=O)N1CCOc2c1ccc1ncnc(Oc3ccc(OCc4ccccn4)cc3)c21 [Example 39, 1-(10-(4-(pyridin-2-ylmethoxy)phenoxy)-2,3-dihydro-4H-[1,4]oxazino[2,3-f]quinazolin-4-yl)prop-2-en-1-one] | ≤ 50 | ≤ 50 |  |
| C=CC(=O)N1CCOc2c1ccc1ncnc(Oc3ccc(OCc4ccccc4F)cc3)c21 [Example 40, 1-(10-(4-((2-fluorobenzyl)oxy)phenoxy)-2,3-dihydro-4H-[1,4]oxazino[2,3-f]quinazolin-4-yl)prop-2-en-1-one] | ≤ 50 | ≤ 50 |  |
| C=CC(=O)N1CCOc2c1ccc1ncnc(Oc3ccc(OCc4cccc(F)c4)cc3)c21 [Example 41, 1-(10-(4-((3-fluorobenzyl)oxy)phenoxy)-2,3-dihydro-4H-[1,4]oxazino[2,3-f]quinazolin-4-yl)prop-2-en-1-one] | ≤ 50 | ≤ 50 |  |
| C=CC(=O)N1CCOc2c1ccc1ncnc(Oc3ccc(OCc4ccc(F)cc4)cc3)c21 [Example 42, 1-(10-(4-((4-fluorobenzyl)oxy)phenoxy)-2,3-dihydro-4H-[1,4]oxazino[2,3-f]quinazolin-4-yl)prop-2-en-1-one] | ≤ 50 | ≤ 50 |  |
| CN(C)C/C=C/C(=O)N1CCOc2c1ccc1ncnc(Nc3ccc(Oc4cccc(C(F)(F)F)c4)cc3)c21 [Example 43, (E)-4-(dimethylamino)-1-(10-((4-(3-(trifluoromethyl)phenoxy)phenyl)amino)-2,3-dihydro-4H-[1,4]oxazino[2,3-f]quinazolin-4-yl)but-2-en-1-one] | ≤ 50 | ≤ 50 |  |
| CN(C)C/C=C/C(=O)N1CCOc2c1ccc1ncnc(Nc3ccc(OCc4cccc(F)c4)c(Cl)c3)c21 [Example 45, (E)-1-(10-((3-chloro-4-((3-fluorobenzyl)oxy)phenyl)amino)-2,3-dihydro-4H-[1,4]oxazino[2,3-f]quinazolin-4-yl)-4-(dimethylamino)but-2-en-1-one] | ≤ 50 | ≤ 50 |  |
| CN(C)C/C=C/C(=O)N1CCOc2c1ccc1ncnc(Nc3ccc(Oc4ccc(Cl)cc4)cc3)c21 [Example 52, (E)-4-(dimethylamino)-1-(10-((4-(4-chlorophenoxy)phenyl)amino)-2,3-dihydro-4H-[1,4]oxazino[2,3-f]quinazolin-4-yl)but-2-en-1-one] | ≤ 50 | ≤ 50 |  |
| CN(C)C/C=C/C(=O)N1CCOc2c1ccc1ncnc(Nc3ccc(OCc4cccc(F)c4)c(C(F)(F)F)c3)c21 [Example 67] | ≤ 50 | ≤ 50 |  |
| CN(C)C/C=C/C(=O)N1CCOc2c1ccc1ncnc(Nc3ccc(Sc4ccc(F)cc4)cc3)c21 [Example 70, (E)-4-(dimethylamino)-1-(10-((4-((4-fluorophenyl)thio)phenyl)amino)-2,3-dihydro-4H-[1,4]oxazino[2,3-f]quinazolin-4-yl)but-2-en-1-one] | ≤ 50 | ≤ 50 | ≤ 50 |
| CC(Oc1ccc(Nc2ncnc3ccc4c(c23)OCCN4C(=O)/C=C/CN(C)C)cc1)c1ccccn1 (centres unmarked) [Example 75, (E)-4-(dimethylamino)-1-(10-((4-(1-(pyridin-2-yl)ethoxy)phenyl)amino)-2,3-dihydro-4H-[1,4]oxazino[2,3-f]quinazolin-4-yl)but-2-en-1-one] | 50 to 500 | ≤ 50 |  |
| CN(C)C/C=C/C(=O)N1CCOc2c1ccc1ncnc(Nc3ccc(OCc4ccncc4)cc3)c21 [Example 77, (E)-4-(dimethylamino)-1-(10-((4-(pyridin-4-ylmethoxy)phenyl)amino)-2,3-dihydro-4H-[1,4]oxazino[2,3-f]quinazolin-4-yl)but-2-en-1-one] | 500 to 5000 | ≤ 50 |  |
| COCCCCNC/C=C/C(=O)N1CCOc2c1ccc1ncnc(Nc3ccc(Oc4ccccc4F)cc3)c21 [Example 99, (E)-1-(10-((4-(2-fluorophenoxy)phenyl)amino)-2,3-dihydro-4H-[1,4]oxazino[2,3-f]quinazolin-4-yl)-4-((4-methoxybutyl)amino)but-2-en-1-one] | 50 to 500 | ≤ 50 |  |
| Cc1cc(Nc2ncnc3ccc4c(c23)OCCN4C(=O)/C=C/CN(C)C)ccc1Oc1ccn2ncnc2c1 [Example 124, (E)-1-(10-((4-([1,2,4]triazolo[1,5-a]pyridin-7-yloxy)-3-methylphenyl)amino)-2,3-dihydro-4H-[1,4]oxazino[2,3-f]quinazolin-4-yl)-4-(dimethylamino)but-2-en-1-one] | 50 to 500 | ≤ 50 | ≤ 50 |
| CN(C)C/C=C/C(=O)N1CCOc2c1ccc1ncnc(Nc3ccc(Oc4ccn5ncnc5c4)c(Cl)c3)c21 [Example 125, (E)-1-(10-((4-([1,2,4]triazolo[1,5-a]pyridin-7-yloxy)-3-chlorophenyl)amino)-2,3-dihydro-4H-[1,4]oxazino[2,3-f]quinazolin-4-yl)-4-(dimethylamino)but-2-en-1-one] | 50 to 500 | ≤ 50 | ≤ 50 |
| CN1CCN(C/C=C/C(=O)N2CCOc3c2ccc2ncnc(Nc4ccc(Oc5ccn6ncnc6c5)c(Cl)c4)c32)CC1 [Example 126, (E)-1-(10-((4-([1,2,4]triazolo[1,5-a]pyridin-7-yloxy)-3-chlorophenyl)amino)-2,3-dihydro-4H-[1,4]oxazino[2,3-f]quinazolin-4-yl)-4-(4-methylpiperazin-1-yl)but-2-en-1-one] | ≤ 50 | ≤ 50 | ≤ 50 |
| CC(C)N(C)C/C=C/C(=O)N1CCOc2c1ccc1ncnc(Nc3ccc(Oc4ccn5ncnc5c4)c(Cl)c3)c21 [Example 127, (E)-1-(10-((4-([1,2,4]triazolo[1,5-a]pyridin-7-yloxy)-3-chlorophenyl)amino)-2,3-dihydro-4H-[1,4]oxazino[2,3-f]quinazolin-4-yl)-4-(isopropyl(methyl)amino)but-2-en-1-one] | 50 to 500 | ≤ 50 | ≤ 50 |
| O=C(/C=C/CN1CCCCC1)N1CCOc2c1ccc1ncnc(Nc3ccc(Oc4ccn5ncnc5c4)c(Cl)c3)c21 [Example 128, (E)-1-(10-((4-([1,2,4]triazolo[1,5-a]pyridin-7-yloxy)-3-chlorophenyl)amino)-2,3-dihydro-4H-[1,4]oxazino[2,3-f]quinazolin-4-yl)-4-(piperidin-1-yl)but-2-en-1-one] | 50 to 500 | ≤ 50 | ≤ 50 |
